According to PubChem BioAssay AID248 (DTP/NCI, 2004):
Toxic doses and inconclusive results are not listed. No stated cut-off is given here; in the data, active means T/C of 150% or more; inactive means T/C below 125%.

Tested on: L1210 leukemia ip in BDF1 mice, survival T/C
Assay: NCI In Vivo Anticancer Drug Screen. Data for tumor model L1210 Leukemia (intraperitoneal) in B6D2F1 (BDF1) mice
Conditions: endpoint: mean survival time, higher = longer survival
Summary of the method: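 Read-out is survival time, reported as the treated-group measurement over the vehicle-control measurement.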

[1] = dose: 100.0 mg/kg/injection, schedule: Q04DX003 (ip), vehicle: saline
[2] = dose: 200.0 mg/kg/injection, schedule: Q04DX003 (ip), vehicle: saline
[3] = dose: 400.0 mg/kg/injection, schedule: Q04DX003 (ip), vehicle: saline
[4] = dose: 50.0 mg/kg/injection, schedule: Q01DX009 (ip), vehicle: saline with Tween-80
[5] = dose: 100.0 mg/kg/injection, schedule: Q01DX009 (ip), vehicle: saline with Tween-80
[6] = dose: 100.0 mg/kg/injection, schedule: Q04DX003 (ip), vehicle: saline with Tween-80
[7] = dose: 200.0 mg/kg/injection, schedule: Q01DX009 (ip), vehicle: saline with Tween-80
[8] = dose: 200.0 mg/kg/injection, schedule: Q04DX003 (ip), vehicle: saline with Tween-80
[9] = dose: 400.0 mg/kg/injection, schedule: Q01DX009 (ip), vehicle: saline with Tween-80
[10] = dose: 400.0 mg/kg/injection, schedule: Q04DX003 (ip), vehicle: saline with Tween-80
[11] = dose: 100.0 mg/kg/injection, schedule: Q01DX001 (ip), vehicle: saline
[12] = dose: 200.0 mg/kg/injection, schedule: Q01DX001 (ip), vehicle: saline
[13] = dose: 400.0 mg/kg/injection, schedule: Q01DX001 (ip), vehicle: saline
[14] = dose: 100.0 mg/kg/injection, schedule: Q04DX002 (ip), vehicle: saline
[15] = dose: 200.0 mg/kg/injection, schedule: Q04DX002 (ip), vehicle: saline
[16] = dose: 400.0 mg/kg/injection, schedule: Q04DX002 (ip), vehicle: saline
[17] = dose: 100.0 mg/kg/injection, schedule: Q04DX002 (ip), vehicle: Klucel (hydroxypropylcellulose) (HPC)
[18] = dose: 200.0 mg/kg/injection, schedule: Q04DX002 (ip), vehicle: Klucel (hydroxypropylcellulose) (HPC)
[19] = dose: 100.0 mg/kg/injection, schedule: Q04DX002 (ip), vehicle: saline with Tween-80
[20] = dose: 200.0 mg/kg/injection, schedule: Q04DX002 (ip), vehicle: saline with Tween-80
[21] = dose: 100.0 mg/kg/injection, schedule: Q01DX009 (ip), vehicle: saline
[22] = dose: 200.0 mg/kg/injection, schedule: Q01DX009 (ip), vehicle: saline

Measured: T/C

O=NN1C(=O)N(CCCl)C(=O)C1(c1ccccc1)c1ccccc1
inactive: [1] 96 % of control | [2] 97 % of control | [3] 102 % of control

Cc1c(C#N)c2n(c1C)CCCC(=O)N2
inactive: [4] 91 % of control | dose: 50.0 mg/kg/injection, schedule: Q04DX003 (ip), vehicle: saline with Tween-80 101 % of control | [5] 90 % of control | [6] 88 % of control | [7] 91 % of control | [8] 97 % of control | [9] 88 % of control | [10] 92 % of control

Cc1ccc(Cl)cc1NC(=O)c1c(Br)c(Br)c(Br)c(Br)c1C(=O)O
inactive: [5] 105 % of control | [6] 97 % of control | [7] 105 % of control | [8] 101 % of control | [9] 113 % of control | [10] 101 % of control

C=CCON(C)c1ccccc1
inactive: [1] 94 % of control | [2] 108 % of control | [3] 96 % of control

COS(=O)(=O)c1ccc[n+](C)c1
inactive: dose: 50.0 mg/kg/injection, schedule: Q01DX001 (ip), vehicle: saline 100 % of control | [11] 105 % of control | [12] 98 % of control | [13] 96 % of control

COC1=C(Br)C(=O)c2ncccc2C1=O
inactive: dose: 5.0 mg/kg/injection, schedule: Q01DX001 (ip), vehicle: carboxymethylcellulose (CMC) 104 % of control | dose: 20.0 mg/kg/injection, schedule: Q01DX001 (ip), vehicle: carboxymethylcellulose (CMC) 94 % of control

CN1C2CCCCC1C1CCCCC2N1C
inactive: dose: 75.0 mg/kg/injection, schedule: Q01DX001 (ip), vehicle: saline 105 % of control | dose: 150.0 mg/kg/injection, schedule: Q01DX001 (ip), vehicle: saline 94 % of control | dose: 300.0 mg/kg/injection, schedule: Q01DX001 (ip), vehicle: saline 98 % of control

Nc1nnnn1CC(Br)CBr (centres undefined)
inactive: [14] 104 % of control | [15] 101 % of control | [16] 90 % of control

[CH3][Sn]([CH3])([CH3])[O][N+](=O)[O-]
inactive: dose: 0.18 mg/kg/injection, schedule: Q01DX009 (ip), vehicle: saline 94 % of control | dose: 0.37 mg/kg/injection, schedule: Q01DX009 (ip), vehicle: saline 100 % of control | dose: 0.75 mg/kg/injection, schedule: Q01DX009 (ip), vehicle: saline 103 % of control | dose: 1.5 mg/kg/injection, schedule: Q04DX003 (ip), vehicle: saline 108 % of control | dose: 3.0 mg/kg/injection, schedule: Q04DX003 (ip), vehicle: saline 103 % of control

Cc1cc(N2CCC(N3CCCC3)CC2)nc(/N=C(\N)Nc2ccc(Cl)c(Cl)c2)n1
inactive: dose: 12.0 mg/kg/injection, schedule: Q01DX009 (ip), vehicle: saline 97 % of control | dose: 25.0 mg/kg/injection, schedule: Q01DX009 (ip), vehicle: saline 106 % of control | dose: 50.0 mg/kg/injection, schedule: Q01DX009 (ip), vehicle: saline 98 % of control

COc1cc(C(=O)NC(=S)NCc2ccncc2)cc(OC)c1OC
inactive: [17] 96 % of control | [18] 88 % of control

O=C(O)c1cc(Br)cc(I)c1I
inactive: [19] 105 % of control | [20] 105 % of control | dose: 400.0 mg/kg/injection, schedule: Q04DX002 (ip), vehicle: saline with Tween-80 110 % of control

COc1cc(C=O)cc(I)c1O
inactive: dose: 12.5 mg/kg/injection, schedule: Q01DX009 (ip), vehicle: saline with Tween-80 94 % of control | dose: 25.0 mg/kg/injection, schedule: Q01DX009 (ip), vehicle: saline with Tween-80 94 % of control | [4] 91 % of control

CN(C)C(=O)c1cccc([N+](=O)[O-])c1
inactive: [6] 97 % of control | [8] 94 % of control

O=P(CCCl)(OCCCl)N1CCCCC1 (centres undefined)
inactive: dose: 50.0 mg/kg/injection, schedule: Q04DX003 (ip), vehicle: saline 104 % of control | [21] 93 % of control | [1] 104 % of control | [22] 96 % of control | [2] 102 % of control | dose: 400.0 mg/kg/injection, schedule: Q01DX009 (ip), vehicle: saline 88 % of control | [3] 98 % of control

CNCCc1ccc(O)cc1
inactive: [11] 104 % of control | [12] 102 % of control | [13] 104 % of control

CN(C)C1(Cc2ccccc2)c2ccccc2-c2ccccc21
inactive: dose: 50.0 mg/kg/injection, schedule: Q04DX002 (ip), vehicle: Klucel (hydroxypropylcellulose) (HPC) 103 % of control | [17] 106 % of control | [18] 95 % of control

CCOC(=O)N1NC(=O)CC1(C)C
inactive: [1] 105 % of control | [2] 105 % of control | [3] 102 % of control

CCCCCCCCC1SC1CCCCCCCC(=O)OCC1CS1 (centres undefined)
inactive: dose: 100.0 mg/kg/injection, schedule: Q01DX001 (ip), vehicle: other 101 % of control | dose: 200.0 mg/kg/injection, schedule: Q01DX001 (ip), vehicle: other 115 % of control | dose: 400.0 mg/kg/injection, schedule: Q01DX001 (ip), vehicle: other 93 % of control

O=C(O)CCCOc1ccc(Cl)cc1Cl
inactive: [5] 103 % of control | [7] 98 % of control | [9] 103 % of control

CCCC(=O)OCC1CO1 (centres undefined)
inactive: dose: 100.0 mg/kg/injection, schedule: Q01DX001 (ip), vehicle: Klucel (hydroxypropylcellulose) (HPC) 100 % of control | dose: 100.0 mg/kg/injection, schedule: Q04DX003 (ip), vehicle: Klucel (hydroxypropylcellulose) (HPC) 104 % of control | dose: 200.0 mg/kg/injection, schedule: Q01DX001 (ip), vehicle: Klucel (hydroxypropylcellulose) (HPC) 104 % of control | dose: 200.0 mg/kg/injection, schedule: Q04DX003 (ip), vehicle: Klucel (hydroxypropylcellulose) (HPC) 98 % of control | dose: 400.0 mg/kg/injection, schedule: Q01DX001 (ip), vehicle: Klucel (hydroxypropylcellulose) (HPC) 102 % of control | dose: 400.0 mg/kg/injection, schedule: Q04DX003 (ip), vehicle: Klucel (hydroxypropylcellulose) (HPC) 106 % of control

C1=NC(c2ccccc2)=CN(C2CCCCC2)C1(c1ccccc1)C1CCCCC1 (centres undefined)
inactive: dose: 50.0 mg/kg/injection, schedule: Q04DX002 (ip), vehicle: saline with Tween-80 99 % of control | [17] 92 % of control | [19] 105 % of control | [18] 98 % of control | [20] 96 % of control | dose: 400.0 mg/kg/injection, schedule: Q04DX002 (ip), vehicle: Klucel (hydroxypropylcellulose) (HPC) 98 % of control

CCN(CC)CCN1C(=O)C(c2ccccc2)C2(CCN(C)CC2)C1=O (centres undefined)
inactive: [11] 101 % of control | [12] 105 % of control | [13] 97 % of control

NCc1ccc(Cl)cc1Cl
inactive: [21] 103 % of control | [22] 108 % of control

C[Se](=O)O.[Pb]
inactive: dose: 3.13 mg/kg/injection, schedule: Q01DX001 (ip), vehicle: saline with Tween-80 98 % of control | dose: 6.25 mg/kg/injection, schedule: Q01DX001 (ip), vehicle: saline with Tween-80 98 % of control | dose: 12.5 mg/kg/injection, schedule: Q01DX001 (ip), vehicle: saline with Tween-80 88 % of control

O=C(O)c1ccc(F)c([N+](=O)[O-])c1
inactive: [14] 102 % of control | [15] 113 % of control | [16] 107 % of control

CCn1c(C)nc2cc(Cl)c([N+](=O)[O-])cc21
inactive: [11] 91 % of control | dose: 100.0 mg/kg/injection, schedule: Q04DX003 (ip), vehicle: acetone 93 % of control | [12] 110 % of control | dose: 200.0 mg/kg/injection, schedule: Q04DX003 (ip), vehicle: acetone 93 % of control | [13] 96 % of control | dose: 400.0 mg/kg/injection, schedule: Q04DX003 (ip), vehicle: acetone 96 % of control

N#CC(O)C(Br)(Br)Br (centres undefined)
inactive: dose: 5.0 mg/kg/injection, schedule: Q01DX001 (ip), vehicle: saline 97 % of control | dose: 10.0 mg/kg/injection, schedule: Q01DX001 (ip), vehicle: saline 92 % of control | dose: 20.0 mg/kg/injection, schedule: Q01DX001 (ip), vehicle: saline 101 % of control
